Data on four sequences can be found in patent US9737622B2, “Compounds modulators of VEGF activity and uses thereof” (ADVANCED ACCELERATOR APPLICATIONS S.A., priority 2009, dated 2017).

Entries after “also recorded” stand apart in the source; their conditions may differ. Bridge positions count the residues as written; N and C are the ends. Ends that are not written are not given here.

The subject of assay [1] is HUVEC cells. In words: Caspase 3 fluorimetric assay in serum-starved HUVEC. As to conditions: for effect of VEGF on caspase-3 activity (rescue) when peptide is added: in presence of VEGF, 8 hours. The class given is cell-based, human. As to the method:
Determination of caspase-3 activity was performed by a fluorometric assay based on the proteolytic cleavage of the AMC-derived substrate N-acetil-DEVD-AMC, which yields a fluorescent product.
HUVEC cells were plated in 6-well dishes at 1×10^5 cells/cm^2. On the next day, cells were treated, in starvation medium (EBM-2, heparin 0.1%, BSA 0.1%), with Pep #3 (25-100 ng/ml) or scrambled Pep RND (100 ng/ml) peptides for 8 h at 37° C. VEGF165 (R & D Systems, Minneapolis, Minn., USA), 25 ng/ml, was used as positive control.
After 8 h the cells were processed with 150 μl of Caspase-3 reaction buffer (HEPES pH 7.5 50 mM, EDTA 0.1 mM, NP-40 0.1%, CHAPS 0.1%, DTT 1 mM) and cell proteins collected after centrifugation at 13000 rpm for 15 min at 4° C. Protein concentrations were determined by Bradford method (Bio-Rad, Hercules, Calif.) and 20 μg of lysates were incubated in 96-well plates with 20 μM N-acetil-DEVD-AMC at 37° C. for 3 h.
Samples were analyzed using a microplate reader (L55 Luminescence Spectometrer Perkin Elmer Instruments) (excitation: 360 nm, emission: 440 nm).
To investigate the biological activity of the designed peptides the authors analyzed the activation of caspase 3 in human primary endothelial (HUVEC) cells serum-deprived by means of a caspase-3 fluorimetric assay. It is well known that VEGF act as survival factor for ECs. […] Experiments were performed on serum starved HUVEC treated with designed peptides in presence or absence of VEGF in order to highlight an antagonist or agonist (VEGF-like) activity respectively. The biological activity of the analyzed compounds is reported as percentage of VEGF rescue (FIG. 1). The decrease of the caspase-3 activity following VEGF incubation is set to 100% rescue.

In a further assay the test system is ERK1/2. Description: Western blot of phospho ERK1/2 in HUVEC. The class given is cell-based, human. As to the method: Cells were plated in 12-well dishes at 1×10^5 cells/cm^2. On the next day, cells were treated, in starvation medium (EBM-2, heparin 0.1%, BSA 0.1%) with Pep #3 (25-100 ng/ml) or Pep RND (100 ng/ml) peptides for 15 min and 30 min at 37° C. VEGF165 (R & D Systems, Minneapolis, Minn., USA) 25 ng/ml was used as positive control. After treatment, whole cell lysates were obtained by using RIPA lysis buffer (Tris 50 mM pH 7.5, NaCl 150 mM, NP-40 1%, EGTA 1 mM, SDS 0.05%) supplemented with Complete Protease Inhibitors and Phosphate Inhibitors (Pierce Biotechnology, Rockford, Ill.). Cell proteins were then collected after centrifugation and protein content was determined by Bradford method (Bio-Rad, Hercules, Calif.). Proteins were separated by electrophoresis on SDS-polyacrylamide gels and transferred to nitrocellulose membrane (Millipore Corp., Bedford, Mass.) by semi-dry electroblotting (Transblot; Bio-Rad Laboratories, Hercules, Calif.).
The serine-tyrosine-phosphorilated ERK1/2 (polyclonal antibody, Cell Signaling Technology, Inc. Danvers, Mass., USA) and aGAPDH (monoclonal antibody 6C5, Santa Cruz Biotechnology, Inc., Santa Cruz, Calif.) were visualized by specific antibodies, anti-rabbit and anti-mouse horseradish peroxidase-conjugated secondary antibody (Jackson Immunoresearch Laboratories, Inc, Baltimor Pike; Pa., USA) standard chemiluminescence (Pierce Biotechnology, Rockford, Ill.).
VEGF-modulated angiogenesis is largely ERK1/2-dependent, leading to DNA synthesis and cell proliferation. […] The authors therefore investigated whether peptide #3 could also induce ERK and AKT activation like VEGF. […] Scrambled Pep-RND had no effect on ERK1/2 and AKT activation, proving that it is unable to activate intracellular signaling (FIG. 2A).
For orientation: In western blotting, separated proteins are transferred to a membrane and probed.

Another assay concerns VEGF receptors. Description: Biological and in vivo assays, summary of angiogenic activity. As to conditions: summary statement. The source says:
The compounds have application in diagnosis and treatment of pathologies depending on angiogenesis, especially they can be used in therapy of […].

In a further assay the test system is AKT. Description: Western blot of phospho AKT in HUVEC. The class given is cell-based, human. Conditions: serum deprivation, 15 and 30 min, peptide #3 25-100 ng/ml, Pep-RND 100 ng/ml. The method, then: Cells were plated in 12-well dishes at 1×10^5 cells/cm^2. On the next day, cells were treated, in starvation medium (EBM-2, heparin 0.1%, BSA 0.1%) with Pep #3 (25-100 ng/ml) or Pep RND (100 ng/ml) peptides for 15 min and 30 min at 37° C. VEGF165 (R & D Systems, Minneapolis, Minn., USA) 25 ng/ml was used as positive control. After treatment, whole cell lysates were obtained by using RIPA lysis buffer (Tris 50 mM pH 7.5, NaCl 150 mM, NP-40 1%, EGTA 1 mM, SDS 0.05%) supplemented with Complete Protease Inhibitors and Phosphate Inhibitors (Pierce Biotechnology, Rockford, Ill.). Cell proteins were then collected after centrifugation and protein content was determined by Bradford method (Bio-Rad, Hercules, Calif.). Proteins were separated by electrophoresis on SDS-polyacrylamide gels and transferred to nitrocellulose membrane (Millipore Corp., Bedford, Mass.) by semi-dry electroblotting (Transblot; Bio-Rad Laboratories, Hercules, Calif.). […]

Another assay concerns RB protein. Description: Western blot of RB phosphorylation in HUVEC. The class given is cell-based, human. As to conditions: 24 hours, Pep #3 10-100 ng/ml, VEGF165 25 ng/ml, Pep RND 100 ng/ml. The method, then:
FIG. 3—A) HUVEC cells were incubated in starvation medium (EBM-2, 0.1% heparin, 0.1% BSA) alone or in presence of VEGF165 (25 ng/ml) or with indicated concentrations of Pep #3 or Pep RND (100 ng/ml), for 24, 48 and 72 hours at 37° C. in 5% CO2 atmosphere. Cells were then incubated with CyQUANT® NF reagent for 1 hour at 37° C. and fluorescence intensities of quadruplicate samples were measured with a fluorescence microplate reader using excitation at 485 nm and fluorescence detection at 530 nm. In graph values are calculated as % of proliferating cells compared to controls (untreated cells) at 24, 48 and 72 hours. B) ERK1/2 phosphorylation and phospho-RB was evaluated at 24 hr after stimulation with Pep #3 (10-25-50 and 100 ng/ml), VEGF165 (25 ng/ml) and Pep RND (100 ng/ml). Anti-ERK1/2 and anti-GAPDH antibodies were used as loading control
As a marker of cell proliferation, the RB phosphorylation status was also checked in the same experimental conditions. RB protein, in fact, is able to regulate proliferation by controlling cell cycle progression through the restriction point within the G1 and S phases.

Assay [2] relates to HUVEC cells. In words: Cell proliferation assay (CyQUANT NF). It is filed as cell-based, human. The method, then: HUVEC cells were plated at density of 1200 cells/well in 96-well poly-D-lysine-coated microplates (Becton Dickinson, Franklin Lakes, N.J. USA). After 24 hours incubation in starvation medium (EBM-2, heparin 0.1%, BSA 0.1%), cells were treated with VEGF165 25 ng/ml (R & D Systems, Minneapolis, Minn., USA), with Pep #3 (10-25-50-100 ng/ml) or Pep RND (100 ng/ml). Cell proliferation was determined by using CyQUANT® NF Cell Proliferation Assay Kit (Molecular Probes, Invitrogen S.R.L., Milano, Italy) at 24, 48 and 72 hour after treatment. CyQUANT® NF assay is based on cellular DNA content measurement via fluorescent dye binding. Because cellular DNA content is highly regulated, it is closely proportional to cell number. Briefly, medium was removed and cells incubated with CyQUANT NF reagent for 1 hour at 37° C. according to the manufacturer's instructions. Plates were then analyzed by using a microplate reader (L55 Luminescence Spectometrer Perkin Elmer Instruments) (excitation: 485 nm, emission: 520 nm).
To evaluate whether peptide #3 induces cellular proliferation, a cell proliferation assay was performed on HUVEC cells treated, in serum deprivation conditions, with pep #3 (10-25-50-100 ng/ml) or Pep RND (100 ng/ml). After 24, 48 and 72 hours of treatment cell proliferation was measured by CyQUANT® NF Cell Proliferation Assay Kit. […] This effect is evident at 24, 48 and 72 hours. […]

The next assay concerns blood vessel development. Description: Directed In Vivo Angiogenesis Angioreactor (DIVAA). More on the design: species or system CD1 mice. As to conditions: mice, 21 days. The method, then:
Female CD1 mice (20-25 g) were supplied by Charles-River (Italy) and kept in temperature- and humidity-controlled rooms (22° C., 50%) with lights on from 07:00 to 19:00 h, water and food available ad libitum. All procedures were carried out in accordance with the Italian law (Legislative Decree no. 116, 27 Jan. 1992), which acknowledges the European Directive 86/609/EEC, and were fully compliant with GlaxoSmithKline policy on the care and use of laboratory animal and codes of practice. Furthermore, all efforts were made to minimize the number of animals used and their suffering.
Sterile silicone cylinders closed at one end, called angioreactors (Cultrex, Trevigen, Inc. Helgerman Conn., Gaithersburg), were filled with 20 μL of basement membrane extract (BME) premixed with or without angiogenesis factors (VEGF, FGF) to obtain positive and negative controls respectively. […]
Vessel formation evaluation was performed after 21 days. […] Subsequently, cells were incubated with FITC-Lectin reagent (available in the kit) and then observed by fluorescence microscope (ZEISS, German).
Pro-angiogenic peptide #3 activity was also assayed in an in vivo test using DIVAA (Directed in Vivo Angiogenesis Angioreactor). DIVAA test is performed by implanting angioreactors into the dorsal flank of mice; this allows a quantitative assessment of blood vessel development. […]

With “KQCLWIRSGDRPWYCTS (disulfide 3-15 (inferred)) [Peptide #4]”, the “effect of VEGF on caspase-3 activity (rescue) when peptide is added” value in the assay on HUVEC cells [1] is reported as “partially abolished”. For the same sequence, the “ERK 1/2 activation of VEGF stimulated HUVE cells” value in the assay on ERK1/2 (100 ng/mL, 30 min, VEGF 25 ng/ml) was “dramatically reduces”. Further, the “biological effect (ERK1/2 activation) on untreated HUVE cells” value with ERK1/2 (100 ng/mL, 30 min, no VEGF) was “does not show any biological effect”. In addition, the “angiogenic biological activity (pro- or anti-)” value (from here on “angiogenic biological activity”) in the assay with VEGF receptors is on record as “antiangiogenic activity”.
For the sequence “KQCMWIKPHQGQWTCTS (disulfide 3-15 (inferred)) [compound 2]”, the “effect of VEGF on caspase-3 activity (rescue) when peptide is added” value in the assay with HUVEC cells [1] is “partially abolished”. The “angiogenic biological activity” value in the assay with VEGF receptors is recorded as “antiangiogenic activity”.
Take “KQIMWIKPHQGQWIYTS (prepared by chemical synthesis) [compound 1]”: the “angiogenic biological activity” value in the assay with VEGF receptors is “antiangiogenic activity”.
Turning to “KQLLWIRSGDRPWYYTS (prepared by chemical synthesis) [Peptide #3]”, the “caspase-3 activity (rescue from apoptosis)” value with HUVEC cells [1] (8 hour, without added VEGF, peptide #3 25 ng/ml and 100 ng/ml, vs untreated and Pep-RND-treated cells) was “significantly decreased”. For the same sequence, in the assay on ERK1/2 (HUVEC, 24 hours, Pep #3 10-100 ng/ml, VEGF165 25 ng/ml), the “ERK1/2 activation after 24 hours of treatment” value was “confirmed ERK1/2 activation”. Further, the “ERK1/2 activation (phospho ERK1/2)” value in the assay on ERK1/2 (HUVEC, serum deprivation, 15 and 30 min, peptide #3 25-100 ng/ml, Pep-RND 100 ng/ml) was “displayed ERK1/2 and AKT activation”. Also, in the assay on AKT, the “AKT activation (phospho AKT)” value was “displayed ERK1/2 and AKT activation”. Besides, the RB phosphorylation entry with RB protein is listed as “enhanced RB phosphorylation”. The “cell proliferation at 25 and 50 ng/ml” value with HUVEC cells [2] (25 and 50 ng/ml, 48 and 72 hours) is “Considerable effects”. For the same sequence, the cell proliferation result with HUVEC cells [2] (serum deprivation, 24, 48 and 72 hours, pep #3 10-25-50-100 ng/ml, Pep RND 100 ng/ml) is reported as “able to induce, in a dose dependent manner, cell proliferation”. Further, the “induction of new vessel formation with respect to negative controls” value with blood vessel development (100 ng/ml, FITC-lectin positive cells) is 3.8 fold. The “blood vessels development / new vessel formation in angioreactors” value in the assay with blood vessel development (subcutaneous angioreactors, peptide #3 100 ng/ml) is recorded as “Blood vessels development was observed; also recorded: new vessel formation was observed”. In the assay with VEGF receptors, the “angiogenic biological activity” value is recorded as “proangiogenic biological activity”.
